Values joined by “and” are separate entries in the source; they are usually repeats but may differ in a detail not shown here. Equal entries are not always repeated.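 The compound was tested at five concentrations on cells cultured in 96-well plates, with a 48-hour exposure period. GI50 is the concentration that inhibits growth by half. The concentration for full growth arrest is given as TGI.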 *1 amine or outer side, *2 acyl side, *3 side chain or, on linkers, in order; H or OH if unused. Where a SMILES comes first, the peptide text is derived from it. [ ]: non-standard residue; d: D form. The star is where a group is joined. X12 = NCCCCC(N[*:1])C(=O)CN1CCCC1C(=O)[*:2]; Pentadecanoyl = CCCCCCCCCCCCCCC(=O)*
How the values were obtained:
Assay in all cases: NCI tumour cell line growth inhibition, 48 h
A498 renal = test system: A498 renal
DU-145 prostate = test system: DU-145 prostate
EKVX NSCLC = test system: EKVX NSCLC
HCT-116 colon = test system: HCT-116 colon
HOP-62 NSCLC = test system: HOP-62 NSCLC
M14 melanoma = test system: M14 melanoma
OVCAR-5 ovarian = test system: OVCAR-5 ovarian
SF-268 CNS = test system: SF-268 CNS
SK-MEL-28 melanoma = test system: SK-MEL-28 melanoma
SK-OV-3 ovarian = test system: SK-OV-3 ovarian

| Structure (SMILES) | GI50 (A498 renal) | TGI (A498 renal) | GI50 (DU-145 prostate) | TGI (DU-145 prostate) | GI50 (EKVX NSCLC) | TGI (EKVX NSCLC) | GI50 (HCT-116 colon) | TGI (HCT-116 colon) | GI50 (HOP-62 NSCLC) | TGI (HOP-62 NSCLC) | GI50 (M14 melanoma) | TGI (M14 melanoma) | GI50 (OVCAR-5 ovarian) | TGI (OVCAR-5 ovarian) | GI50 (SF-268 CNS) | TGI (SF-268 CNS) | GI50 (SK-MEL-28 melanoma) | TGI (SK-MEL-28 melanoma) | GI50 (SK-OV-3 ovarian) | TGI (SK-OV-3 ovarian) |
| --- | --- | --- | --- | --- | --- | --- | --- | --- | --- | --- | --- | --- | --- | --- | --- | --- | --- | --- | --- | --- |
| CCCCCCCCCCCCCCC(=O)NC(CCCCN)C(=O)CN1CCCC1C(=O)NCC(=O)NC(Cc1ccccc1)C(=O)N1CCCC1C(=O)NC(CO)C(=O)NC(Cc1ccc(O)cc1)C(=O)NC(CCCCN)C(=O)NC(CC(C)C)C(=O)NC(CCCN=C(N)N)C(=O)N1CCCC1C(=O)NCC(N)=O (configuration not stated) (Pentadecanoyl-[X12]GFPSYKLRPG-NH2; configuration not given here) | 40.6 µM | > 100 µM | 24.1 µM | 53.8 µM | 25.9 µM | 60.5 µM | 14.2 µM | 29.6 µM | 20.5 µM | 45.2 µM | 19.2 µM | 39.8 µM | 18.7 µM | 44.4 µM | 22.4 µM | 52.9 µM | 25.7 µM | 60.6 µM | 23.5 µM | 43.4 µM |
| CC(=O)OCC12C(OC(C)=O)C[C@@H](C)C3(CC(c4ccoc4)OC3=O)C1CCC(OC(C)=O)C21CO1 (some centres not stated) |  | > 100 µM |  | > 100 µM |  | > 100 µM |  | > 100 µM |  | > 100 µM |  | > 100 µM |  | > 100 µM |  | > 100 µM |  | > 100 µM |  | > 100 µM |
| C/C(=N\Nc1nc2ccccc2n1C)c1ccncn1 |  | 5.79 µM |  | > 44.7 µM |  | > 47.7 µM |  | > 39.8 µM |  | > 100 µM |  | 0.44 µM |  | > 100 µM |  | > 100 µM |  | 0.168 µM |  | > 100 µM |
| COC1OC(=O)C(OC)C(OC)C1OC (configuration not stated) |  | > 100 µM |  | > 100 µM |  | > 100 µM |  | > 100 µM |  | > 100 µM |  | > 100 µM |  | > 100 µM |  | > 100 µM |  | > 100 µM |  | > 100 µM |
| Cc1cccc(-c2cc(=O)c3cc(C)cnc3[nH]2)c1 |  | > 24.2 µM |  | 13.3 µM |  | > 100 µM |  | 11.4 µM |  | > 100 µM |  | > 100 µM |  | > 100 µM |  | > 100 µM |  | > 100 µM |  | > 29.6 µM |
| COc1cc(OC)cc(-c2nc3ccccc3c(=O)[nH]2)c1 |  | 82.2 µM |  | > 100 µM |  | > 100 µM |  | > 100 µM |  | > 100 µM |  | > 100 µM |  | > 100 µM |  | > 100 µM |  | > 100 µM |  | 62.8 µM |
| COc1ccc2c(-c3csc(-c4c[nH]c5ccccc45)n3)c[nH]c2c1 |  | 21.6 µM |  | > 44.8 µM |  | 13.3 µM |  | 19 µM |  | 49.2 µM |  | 53.1 µM |  | > 50.7 µM |  | 26 µM |  | > 81.6 µM |  | 42.7 µM |
| CCOC(=O)c1sc2[n+](c1C)C(=O)/C(=C/c1ccccc1Cl)S2 |  | > 56.8 µM |  | > 35.6 µM |  | > 100 µM |  | > 48 µM |  | 60.9 µM |  | > 43.1 µM |  | > 62 µM |  | > 53.5 µM |  | 47.3 µM |  | > 69.2 µM |
| C[S+](C)C1(c2ccccc2)C(=O)c2ccccc2C1=O |  | > 100 µM |  | > 100 µM |  | 76.9 µM |  | > 100 µM |  | > 100 µM |  | > 100 µM |  | > 89.7 µM |  | > 100 µM |  | > 100 µM |  | > 100 µM |
| Cn1c(-c2cccs2)cc(-c2ccsc2)c1-c1ccsc1 |  | > 100 µM |  | > 100 µM |  | > 100 µM |  | > 100 µM |  | > 100 µM |  | > 100 µM |  | > 100 µM |  | > 100 µM |  | > 100 µM |  | > 100 µM |
| Cc1cc(C)c(N)c(CO)c1 | 0.0675 µM and 0.183 µM | 0.231 µM and 0.409 µM |  | > 100 µM |  | > 100 µM |  | > 100 µM |  | > 100 µM |  | > 100 µM | 1.17 µM and 4.31 µM | 6.61 µM and 19 µM |  | > 100 µM |  | > 100 µM |  | > 100 µM |
| N#Cc1nc(-c2ccccn2)c(-c2ccccn2)nc1C#N |  | 8.19 µM |  | 12.7 µM |  | 15.7 µM |  | 3.27 µM |  | 17 µM |  | 8.46 µM |  | 10 µM |  | 7.12 µM |  | 45.6 µM |  | 7.26 µM |
| Oc1[nH]c2ccccc2c1N=NC(=S)NCc1ccccn1 |  | 7.51 µM |  | 12.7 µM |  | 12.5 µM |  | 15.1 µM |  | 6.87 µM |  | 4.89 µM |  | 22.7 µM |  | 3.84 µM |  | 21.5 µM |  | 13.8 µM |
| CC(=O)N1C(=O)/C(=C\C(=O)c2ccc(Cl)cc2)c2ccccc21 |  | 69.3 µM |  | 33.7 µM |  | 36.2 µM |  | 32.3 µM |  | 41.2 µM |  | 38.8 µM |  | 48.4 µM |  | 40.5 µM |  | 35.8 µM |  | 59.9 µM |
| Fc1sc2c(c1F)C1CCC2C1 (configuration not stated) |  | > 100 µM |  | > 100 µM |  | > 100 µM |  | > 100 µM |  | > 100 µM |  | > 100 µM |  | > 100 µM |  | > 100 µM |  | > 100 µM |  | > 100 µM |
| CC(=O)O[C@H]1CC[C@]2(C=O)[C@H]3CC[C@]4(C)[C@@H](C5=CC(=O)OC5)CC[C@]4(O)[C@@H]3CC[C@]2(O)C1 |  | 1.16 µM |  | 0.391 µM |  | 0.615 µM |  | 0.5 µM |  | 0.833 µM |  | 1.22 µM |  | 1.87 µM |  | 0.806 µM |  | 3.22 µM |  | 0.802 µM |
| C/C(=N/NC(=O)c1ccccc1Nc1ccccc1C(=O)N/N=C(\C)c1ccc(C)cc1)c1ccc(C)cc1 |  | > 100 µM |  | > 100 µM |  | > 100 µM |  | > 100 µM |  | > 100 µM |  | > 100 µM |  | > 100 µM |  | > 100 µM |  | > 100 µM |  | > 100 µM |
| CCOC(=O)C1=C(C)N(c2ccc(Cl)cc2)C2(O)C=CC(=O)C3C(=O)N(c4ccccc4)C(=O)C132 (configuration not stated) |  | 3.22 µM |  | 4.65 µM |  | 4.38 µM |  | 3.14 µM |  | 4.19 µM |  | 3.29 µM |  | 4.15 µM |  | 4.54 µM |  | 3.06 µM |  | 8.27 µM |

From PubChem BioAssay (NCI)
